Reference: patent US20260317320A1, “C5AR1 ANTAGONISTS AND USES THEREOF” (Vanqua Bio, Inc., priority 2022, published 2026)
Read-outs that look alike come from different tables or passages of the source.

Assays:
[1] = biological target: T1, complement C5a receptor 1 (C5aR1) (Homo sapiens, UniProt P21730); test: β-arrestin recruitment via C5aR1 activation in live CHO-K1 cells (PathHunter), antagonist mode; assay type: cell-based; conditions: antagonist mode; recombinant hC5a (EC90) as competing natural agonist; live CHO-K1 cells; read-out: [Antagonist] B-arrestin2 recruitment: Average IC50
T1 construct: β-galactosidase fragment (PathHunter enzyme complementation); host or cells: CHO-K1 (PathHunter CHO-K1 C5aR1 β-arrestin cell line)
T1 sequence (P21730 1-350): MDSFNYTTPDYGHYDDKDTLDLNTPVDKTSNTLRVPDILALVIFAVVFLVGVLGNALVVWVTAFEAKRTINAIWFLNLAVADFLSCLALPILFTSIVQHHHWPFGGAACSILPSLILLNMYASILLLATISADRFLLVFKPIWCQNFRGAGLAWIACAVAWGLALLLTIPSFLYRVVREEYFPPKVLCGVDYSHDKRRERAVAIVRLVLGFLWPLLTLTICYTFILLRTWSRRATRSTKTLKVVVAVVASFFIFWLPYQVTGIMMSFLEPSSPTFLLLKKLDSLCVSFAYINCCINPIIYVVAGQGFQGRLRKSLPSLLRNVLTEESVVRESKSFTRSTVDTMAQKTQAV
In short: (§1)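 β-arrestin recruitment to C5aR1 in CHO-K1 cells is detected by enzyme-fragment complementation. Antagonism is measured against recombinant hC5a at its EC90; agonism is measured with compound alone. Potencies are grouped into IC50 categories.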

[2] = biological target: T1, complement C5a receptor 1 (C5aR1); test: β-arrestin recruitment via C5aR1 activation in live CHO-K1 cells (PathHunter), agonist mode; assay type: cell-based
In short: as §1

Compound	IC50 [1] [µM]	[Agonist] B-arrestin2 recruitment: Average EC50 (nM) ([2]; at 10 μM)	[Agonist] B-arrestin2 recruitment: Average EC50 (nM) [2]
Cc1cnc2cc([C@H]3CC[C@H](c4nn(C)c5ccccc54)CC3)c(=O)n(Cc3ncccc3C(F)(F)F)c2n1 [compound 191, 3-Methyl-7-((1r,4r)-4-(1-methyl-1H-indazol-3-yl)cyclohexyl)-5-((3-(trifluoromethyl)pyridin-2-yl)methyl)pyrido[2,3-b]pyrazin-6(5H)-one]	5 to 100	Non-Active at 10 μM	
Cc1cnc2cc([C@H]3CC[C@H](c4ccc5c(cnn5C)c4)CC3)c(=O)n(Cc3ncccc3C(F)(F)F)c2n1 [compound 192, 3-Methyl-7-((1r,4r)-4-(1-methyl-1H-indazol-5-yl)cyclohexyl)-5-((3-(trifluoromethyl)pyridin-2-yl)methyl)pyrido[2,3-b]pyrazin-6(5H)-one]	0.5 to 5	Non-Active at 10 μM	
Cc1ccc2cc([C@H]3CC[C@H](c4c(C)cccc4F)CC3)c(=O)n(Cc3ncccc3C(F)F)c2n1 [compound 193, 1-((3-(Difluoromethyl)pyridin-2-yl)methyl)-3-((1r,4r)-4-(2-fluoro-6-methylphenyl)cyclohexyl)-7-methyl-1,8-naphthyridin-2(1H)-one]	< 0.5		Non-Active
Cc1ccc2cc([C@H]3CC[C@H](c4c(C)cccc4F)CC3)c(=O)n(Cc3nccnc3C(F)(F)F)c2n1 [compound 194, 3-((1r,4r)-4-(2-Fluoro-6-methylphenyl)cyclohexyl)-7-methyl-1-((3-(trifluoromethyl)pyrazin-2-yl)methyl)-1,8-naphthyridin-2(1H)-one]	< 0.5		Non-Active
Cc1ccc2cc([C@H]3CC[C@H](c4c(C)cccc4F)CC3)c(=O)n(Cc3ncccc3OC(F)F)c2n1 [compound 195, 1-((3-(Difluoromethoxy)pyridin-2-yl)methyl)-3-((1r,4r)-4-(2-fluoro-6-methylphenyl)cyclohexyl)-7-methyl-1,8-naphthyridin-2(1H)-one]	< 0.5		Non-Active
Cc1ccc2cc([C@H]3CC[C@H](c4c(C)cccc4F)CC3)c(=O)n(Cc3ncccc3OC(F)(F)F)c2n1 [compound 196, 3-((1r,4r)-4-(2-Fluoro-6-methylphenyl)cyclohexyl)-7-methyl-1-((3-(trifluoromethoxy)pyridin-2-yl)methyl)-1,8-naphthyridin-2(1H)-one]	< 0.5		Non-Active
Cc1ncc2cc([C@H]3CC[C@H](c4c(C)cccc4F)CC3)c(=O)n(Cc3ncccc3OC(F)(F)F)c2n1 [compound 198, 6-((1r,4r)-4-(2-Fluoro-6-methylphenyl)cyclohexyl)-2-methyl-8-((3-(trifluoromethoxy)pyridin-2-yl)methyl)pyrido[2,3-d]pyrimidin-7(8H)-one]	< 0.5		Non-Active
COc1cccnc1Cn1c(=O)c([C@H]2CC[C@H](c3c(C)cccc3F)CC2)cc2ncc(C)nc21 [compound 199, 7-((1r,4r)-4-(2-Fluoro-6-methylphenyl)cyclohexyl)-5-((3-methoxypyridin-2-yl)methyl)-3-methylpyrido[2,3-b]pyrazin-6(5H)-one]	< 0.5		Non-Active
CCc1cnc2cc([C@H]3CC[C@H](c4c(C)cccc4F)CC3)c(=O)n(Cc3ncccc3C(F)(F)F)c2n1 [compound 201, 3-Ethyl-7-((1r,4r)-4-(2-fluoro-6-methylphenyl)cyclohexyl)-5-((3-(trifluoromethyl)pyridin-2-yl)methyl)pyrido[2,3-b]pyrazin-6(5H)-one]	< 0.5	Non-Active at 10 μM	
Cc1cnc2cc([C@H]3CC[C@H](c4ccccc4C(F)(F)F)CC3)c(=O)n(Cc3ncccc3C(F)(F)F)c2n1 [compound 202, 3-Methyl-7-((1r,4r)-4-(2-(trifluoromethyl)phenyl)cyclohexyl)-5-((3-(trifluoromethyl)pyridin-2-yl)methyl)pyrido[2,3-b]pyrazin-6(5H)-one]	< 0.5	Non-Active at 10 μM	
CCc1cnc2cc([C@H]3CC[C@H](c4c(C)cccc4F)CC3)c(=O)n(Cc3ncccc3OC(F)(F)F)c2n1 [compound 204, 3-Ethyl-7-((1r,4r)-4-(2-fluoro-6-methylphenyl)cyclohexyl)-5-((3-(trifluoromethoxy)pyridin-2-yl)methyl)pyrido[2,3-b]pyrazin-6(5H)-one]	< 0.5	Non-Active at 10 μM	
Cc1ccc2cc([C@H]3CC[C@H](c4c(C)cccc4F)CC3)c(=O)n(Cc3nccnc3C)c2n1 [compound 206, 3-((1r,4r)-4-(2-fluoro-6-methylphenyl)cyclohexyl)-7-methyl-1-((3-methylpyrazin-2-yl)methyl)-1,8-naphthyridin-2(1H)-one]	0.5 to 5	Non-Active at 10 μM	
Cc1cnc2cc([C@H]3CC[C@H](c4c(F)ccc5c4cnn5C)CC3)c(=O)n(Cc3ncccc3C(F)(F)F)c2n1 [compound 207, 7-((1r,4r)-4-(5-Fluoro-1-methyl-1H-indazol-4-yl)cyclohexyl)-3-methyl-5-((3-(trifluoromethyl)pyridin-2-yl)methyl)pyrido[2,3-b]pyrazin-6(5H)-one]	5 to 100	Non-Active at 10 μM	

Other lines, results leading:

IC50 [1] [µM]	[Agonist] B-arrestin2 recruitment: Average EC50 (nM) ([2]; at 10 μM)	[Agonist] B-arrestin2 recruitment: Average EC50 (nM) [2]	Compound
< 0.5	Non-Active at 10 μM		Cc1cnc2cc([C@H]3CC[C@H](c4c(F)cccc4F)CC3)c(=O)n(Cc3ncccc3OC(F)(F)F)c2n1 [compound 209, 7-((1r,4r)-4-(2,6-Difluorophenyl)cyclohexyl)-3-methyl-5-((3-(trifluoromethoxy)pyridin-2-yl)methyl)pyrido[2,3-b]pyrazin-6(5H)-one]
< 0.5	Non-Active at 10 μM		Cc1ccc2cc([C@H]3CC[C@H](c4c(C)cccc4F)CC3)c(=O)n(Cc3nccnc3C(F)F)c2n1 [compound 210, 1-((3-(Difluoromethyl)pyrazin-2-yl)methyl)-3-((1r,4r)-4-(2-fluoro-6-methylphenyl)cyclohexyl)-7-methyl-1,8-naphthyridin-2(1H)-one]
< 0.5	Non-Active at 10 μM		CCc1cnc2c(cc([C@H]3CC[C@H](c4c(C)cccc4F)CC3)c(=O)n2Cc2ncccc2C(F)(F)F)n1 [compound 211, 2-Ethyl-7-((1r,4r)-4-(2-fluoro-6-methylphenyl)cyclohexyl)-5-((3-(trifluoromethyl)pyridin-2-yl)methyl)pyrido[2,3-b]pyrazin-6(5H)-one]
< 0.5	Non-Active at 10 μM		Cc1cnc2cc([C@H]3CC[C@H](c4c(C)cccc4F)CC3)c(=O)n(Cc3ncccc3OC(F)F)c2n1 [compound 212, 5-((3-(Difluoromethoxy)pyridin-2-yl)methyl)-7-((1r,4r)-4-(2-fluoro-6-methylphenyl)cyclohexyl)-3-methylpyrido[2,3-b]pyrazin-6(5H)-one]
< 0.5	Non-Active at 10 μM		Cc1cnc2cc([C@H]3CC[C@H](c4c(C)cccc4F)CC3)c(=O)n(Cc3ncccc3OCC(F)(F)F)c2n1 [compound 213, 7-((1r,4r)-4-(2-Fluoro-6-methylphenyl)cyclohexyl)-3-methyl-5-((3-(2,2,2-trifluoroethoxy)pyridin-2-yl)methyl)pyrido[2,3-b]pyrazin-6(5H)-one]
5 to 100	Non-Active at 10 μM		COc1cccnc1Cn1c(=O)c([C@H]2CC[C@H](c3c(C)cccc3F)CC2)cc2nc(C(F)(F)F)cnc21 [compound 214, 7-((1r,4r)-4-(2-Fluoro-6-methylphenyl)cyclohexyl)-5-((3-methoxypyridin-2-yl)methyl)-2-(trifluoromethyl)pyrido[2,3-b]pyrazin-6(5H)-one]
< 0.5	Non-Active at 10 μM		CCc1cnc2c(cc([C@H]3CC[C@H](c4c(C)cccc4F)CC3)c(=O)n2Cc2ncccc2OC(F)(F)F)n1 [compound 215, 2-Ethyl-7-((1r,4r)-4-(2-fluoro-6-methylphenyl)cyclohexyl)-5-((3-(trifluoromethoxy)pyridin-2-yl)methyl)pyrido[2,3-b]pyrazin-6(5H)-one]
0.5 to 5	Non-Active at 10 μM		Cc1cnc2cc([C@H]3CC[C@H](c4c(F)cccc4C(F)(F)F)CC3)c(=O)n(Cc3ncccc3OC(F)(F)F)c2n1 [compound 216, 7-((1r,4r)-4-(2-Fluoro-6-(trifluoromethyl)phenyl)cyclohexyl)-3-methyl-5-((3-(trifluoromethoxy)pyridin-2-yl)methyl)pyrido[2,3-b]pyrazin-6(5H)-one]
5 to 100	Non-Active at 10 μM		Cc1cnc2cc([C@H]3CC[C@H](c4c(F)ccc5cnn(C)c54)CC3)c(=O)n(Cc3ncccc3C(F)(F)F)c2n1 [compound 217, 3-Methyl-7-[(1r,4r)-4-(6-fluoro-1-methylindazol-7-yl)cyclohexyl]-5-{[3-(trifluoromethyl)pyridin-2-yl]methyl}pyrido[2,3-b]pyrazin-6-one]
